Data published in US11065249B2, “Diacylglycerol acyl transferase 2 inhibitor” (Pfizer Inc., priority 2019, dated 2021).

How the values were obtained:
[1] = Determination of pKa (capillary electrophoresis, Analiza); assay type: physicochemical; conditions: most basic pKa, mean
human hepatocytes [2] = assay: Intrinsic clearance in human hepatocytes (relay method); assay type: in vitro ADME; conditions: relay hepatocyte assay, 1 μM test compound, mean +/− Std Dev
Procedure: (§1) Cryopreserved human hepatocytes (Lot DCM from BioreclamationIVT) were used. […] At time 0 and 4 h, 25 μL of hepatocyte suspension was removed from the incubation and added to 50 μL of ice-cold acetonitrile (containing metoprolol, indomethacin, and terfenadine as internal standards) to quench the reaction. The samples were centrifuged (Eppendorf, Hauppauge, N.Y.) at 3000 rpm (1439×g) for 10 min at room temperature, and 50 μL of supernatant was transferred to a clean plate, dried completely, and reconstituted before liquid chromatography/tandem mass spectrometry (LC-MS/MS) analysis. The remaining hepatocyte suspensions in the incubation plate were centrifuged (3000 rpm, 1439×g, 10 min, room temperature). The supernatant of 300 μL was transferred to a clean 24-well plate and stored at −80° C. until the next relay experiment. For the second relay experiment, the supernatant plates were warmed first to room temperature for 30 minutes, then to 37° C. for 30 min, and hepatocytes were added to the samples to give a final cell density of 0.5 million cells/mL. The plates were incubated at 37° C. for 4 h, sampled, and processed as described above. Five relays were performed to give a total incubation time of 20 h, with sampling points at (0, 4, 8, 12, 16 and 20 h). The concentrations of test compound determined at each time point by the LC-MS/MS analysis were used to calculate the intrinsic clearance.

human hepatocytes [3] = assay: High throughput determination of intrinsic clearance in human hepatocytes; assay type: in vitro ADME; conditions: high throughput human hepatocyte assay, 1 μM test compound; mean +/− Std Dev
Procedure: (§2) The incubation was carried out at 37° C. […] The samples were centrifuged (Eppendorf, Hauppauge, N.Y.) at 3000 rpm for 5 min at 4° C.

[4] = Intrinsic clearance in human liver microsomes; assay type: in vitro ADME; conditions: 1 μM test compound, mean +/− STD Dev; for CLint (+/−STD Dev): human liver microsome assay
Procedure: The incubations were conducted at 37° C. […] (Sorvall R C 3C Plus, Thermo Scientific, Waltham, Mass.).

[5] = target: DGAT2 in human hepatocytes (Homo sapiens (Human), UniProt Q96PD7); assay: Determination of IC50 values for DGAT2 inhibitors in human hepatocytes; assay type: cell-based; conditions: inhibition of DGAT2 in human hepatocytes; geometric mean
Procedure: For evaluation of the effects of DGAT2 inhibitors in a cell-based setting, cryopreserved human hepatocytes (Lot DOO, Celsis, Baltimore, Md.) were thawed and plated onto type I collagen-coated plates according to the manufacturer's instructions. After 18 hours overnight recovery period, the cells were overlayed with media containing 250 μg/mL Geltrex Basement Membrane Matrix (Thermo Fisher). The following day, media was aspirated and replaced with serum-free Williams Media E (Thermo Fisher) containing 400 μM sodium dodecanoate (Sigma-Aldrich, St. Louis, Mo.) and 2 mM GlutaMAX (Thermo Fisher). […] DGAT2 inhibitors were then added to the desired final concentration. After a 15 minute preincubation, 0.2 μCi [^14C(U)]-glycerol (Perkin Elmer) was added to each well followed by a 3 hour incubation. At this point the media was removed, and the cells lysed via orbital shaking in isopropyl alcohol:tetrahydrofuran (9:1) for 15 minutes prior to centrifugation at 3000 rpm for 10 minutes. Radiolabeled lipids were resolved using a solvent system by thin layer chromatography with the solvent consisting of hexanes:diethyl ether:glacial acetic acid (75:23:2, v/v/v). After separation, radiolabeled lipids were visualized using the Typhoon 9500 phosphorimaging system (GE). The half maximal inhibitory concentrations (IC50 values) were determined by nonlinear regression analysis of the % inhibition dose response curve using GraphPad Prism (GraphPad Software, Inc., La Jolla, Calif.).
Table 5 below provides the IC50 values of selected Examples for inhibition of DGAT2 in human hepatocytes in accordance with the above-described assay. Results are reported as geometric mean IC50 values, with the number of replicates (n) shown.

[6] = Intrinsic clearance in human hepatocytes (relay method); assay type: in vitro ADME; conditions: cryopreserved human hepatocytes (suspension), relay hepatocyte assay, 1 μM test compound, mean +/− Std Dev
Procedure: as §1

[7] = High throughput determination of intrinsic clearance in human hepatocytes; assay type: in vitro ADME; conditions: human, pooled cryopreserved human hepatocytes (suspension), high throughput human hepatocyte assay, 1 μM test compound; mean +/− Std Dev
Procedure: as §2

human DGAT2 (hDGAT2) = human DGAT2 (hDGAT2) (Homo sapiens (Human), UniProt Q96PD7); assay: In vitro DGAT2 assay, determination of IC50 values for DGAT2 inhibitors; assay type: biochemical; conditions: inhibition of DGAT2, hDGAT2 membrane fractions; geometric mean
Procedure: Recombinant baculovirus for the FLAG-tagged hDGAT2 was generated in SF9 insect cells using Bac-to-Bac baculovirus expression system (Invitrogen) according to the manufacturer's protocol. For the expression of hDGAT2, SF9 cells (20 L) grown in Sf900II media were infected with hDGAT2 baculovirus at a multiplicity of infection of 1 in a Wave Bioreactor System 20/50P wave bag (GE Healthcare). After 40 hours of infection, the cells were then harvested by centrifugation at 5,000×g. The cell pellets were washed by resuspending in phosphate buffered saline (PBS) and collected by centrifugation at 5,000×g. The cell paste was flash frozen in liquid N2 and stored at −80° C. until needed. All operations below were at 4° C. unless otherwise noted. The cells were resuspended in lysis buffer (50 mM Tris-HCl, pH 8.0, 250 mM sucrose) including 1 mM ethylenediaminetetraacetic acid (EDTA) and the complete protease inhibitor cocktail (Roche Diagnostics) at a ratio of 3 mL buffer per 1 g cell paste. The cells were lysed by dounce homogenizer. The cell debris was removed by centrifugation at 1,000×g for 20 min, and the supernatant was centrifuged at 100,000×g for 1 hour. The resulting pellet was rinsed three times by filling ultracentrifuge tubes to the top with ice cold PBS before decanting. The washed pellet was resuspended with gentle stirring for 1 hour in lysis buffer containing 8 mM 3-[(3-cholamidopropyl)dimethylammonio]-1-propanesulfonate (CHAPS) at a ratio of 1 mL buffer per 1 g of original cell paste and centrifuged again at 100,000×g for 1 hour. The resulting supernatant was aliquotted, flash frozen in liquid N2, and stored at −80° C. until use.
To 1 μL of compounds dissolved in 100% DMSO and spotted at the bottom of each well, 5 μL of 0.04% bovine serum albumin (BSA) (fatty acid free, Sigma Aldrich) was added and the mixture was incubated at room temperature for 15 minutes. hDGAT2 membrane fractions were diluted in 100 mM Hepes-NaOH, pH 7.4, 20 mM MgCl2 containing 200 nM methyl arachidonyl fluorophosphonate (Cayman Chemical, dried from ethyl acetate stock solution under argon gas and dissolved in DMSO as 5 mM stock). 10 μL of this enzyme working solution was added to the plates and incubation continued for 2 hours at room temperature. DGAT2 reactions were initiated by the addition of 4 μL of substrates containing 30 μM [1-^14C]decanoyl-CoA (custom-synthesized by Perkin Elmer, 50 mCi/mmol) and 125 μM 1,2-didecanoyl-sn-glycerol (Avanti Polar Lipids) dissolved in 12.5% acetone. The reaction mixtures were incubated at room temperature for 40 min and the reactions were stopped by addition of 5 μL of 1% H3PO4. After the addition of 45 μL MicroScint-E (Perkin-Elmer), plates were sealed with Top Seal-A covers (Perkin-Elmer) and phase partitioning of substrates and products was achieved using a HT-91100 microplate orbital shaker (Big Bear Automation, Santa Clara, Calif.). Plates were centrifuged at 2,000×g for 1 minute in an Allegra 6R Centrifuge (Beckman Coulter) and then were sealed again with fresh covers before reading in a 1450 Microbeta Wallac Trilux Scintillation Counter (Perkin Elmer). DGAT2 activity was measured by quantifying the generated product [^14C]tridecanoylglycerol in the upper organic phase.
Inhibitors were tested at eleven different concentrations to generate IC50 values for each compound.

Sequence of human DGAT2 (hDGAT2) (Q96PD7 whole entry): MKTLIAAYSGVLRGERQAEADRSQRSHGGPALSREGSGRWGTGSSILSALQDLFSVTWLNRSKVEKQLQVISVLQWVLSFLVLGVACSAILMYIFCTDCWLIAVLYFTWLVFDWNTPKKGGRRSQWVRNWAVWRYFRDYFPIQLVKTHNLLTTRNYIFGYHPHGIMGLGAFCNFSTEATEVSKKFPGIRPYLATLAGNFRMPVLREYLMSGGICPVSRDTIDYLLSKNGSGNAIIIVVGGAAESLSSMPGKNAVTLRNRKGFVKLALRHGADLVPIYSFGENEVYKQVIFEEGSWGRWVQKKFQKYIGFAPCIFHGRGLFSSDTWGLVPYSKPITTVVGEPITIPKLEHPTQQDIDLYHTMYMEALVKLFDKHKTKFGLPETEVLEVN
Sequence of DGAT2 in human hepatocytes (Q96PD7 whole entry): as above

| pKa [1] | hepatocyte CLint at 1 μM [6] [µL/min/1e6 cells] | hepatocyte CLint at 1 μM [7] [µL/min/1e6 cells] | microsomal CLint at 1 μM ([4]; human, pooled human liver microsomes, pH 7.4, human liver microsome assay) [µL/min/mg] | SMILES | Basic pKa [1] | CLint (+/−Std Dev) (human hepatocytes [2]) | CLint (+/−Std Dev) (human hepatocytes [3]) | CLint (+/−STD Dev) [4] [µL/min/mg] | IC50 [5] [nM] | IC50 (human DGAT2 (hDGAT2)) [nM] |
| --- | --- | --- | --- | --- | --- | --- | --- | --- | --- | --- |
|  |  |  |  | CCOc1cccnc1Oc1cncc(-c2ncc(C(=O)NC3(CO)CCOC3)cn2)c1 (single isomer, unassigned) [WO2018033832 Ex. 6a] | 2.3 | 3.2 +/− 0.21 μL/min/million cells | <3.8 +/− 1.1 μL/min/10^6 cells | 13 ± 2.0 |  |  |
|  |  |  |  | CCOc1cccnc1Oc1cncc(-c2ncc(C(=O)NC3(CO)CCOC3)cn2)c1 (single isomer, unassigned) [WO2018033832 Ex. 6b] | 2.4 | 2.9 +/− 0.057 μL/min/million cells | <3.3 +/− 0.49 μL/min/10^6 cells | <11 ± 3.5 |  |  |
| 7.3 | 1.9 | < 1.9 | < 7 | CCOc1cccnc1Oc1cncc(-c2ncc(C(=O)N[C@@H]3CNCC[C@H]3F)cn2)c1 [Example 5, 2-{5-[(3-Ethoxypyridin-2-yl)oxy]pyridin-3-yl}-N-[(3R,4R)-4-fluoropiperidin-3-yl]pyrimidine-5-carboxamide] |  |  |  |  | 26 |  |
|  |  |  |  | CCOc1cccnc1Oc1cncc(-c2ncc(C(=O)N[C@H]3CCOC3)cn2)c1 [WO2018033832 Ex. 1] | 2.4 | 3.9 +/− 0.52 μL/min/million cells | <3.8 +/− 1.1 μL/min/10^6 cells | 11 ± 2.9 | 2.8 | 17 |
|  |  |  |  | CCOc1cccnc1Oc1cncc(-c2ncc(C(=O)N[C@@H]3CCOC3)cn2)c1 [WO2018033832 Ex. 2] | 2.5 | 4.9 +/− 0.17 μL/min/million cells | 4.7 +/− 0.55 μL/min/10^6 cells | 17 ± 1.3 |  | 200 |
